Activity calls are given as the source filed them. No rule for the calls is given here.
Tested on: CHOP reporter cell assay, percent of control
Experiment: CHOP reporter inhibitor potency, dose response, cell-based (AID 504322);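 also: CHO cells carrying a CHOP reporter stimulated with tunicamycin to induce ER stress; potency is for inhibition of the stress-induced reporter signal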

SMILES	IC50
CC1=C/C(=N\OS(=O)(=O)c2ccccc2)C=CC1=O	1.43 µM
Fc1ccc(Nc2nc(NCc3ccco3)c3ccccc3n2)cc1	> 10 µM (inactive)
COc1ccc(-c2nn(-c3ccccc3)cc2/C=N/NC(=O)c2ccc(Br)o2)cc1	9.29 µM (inactive)
O=C(NCCNC(=O)c1cc(OCC(F)(F)F)ccc1OCC(F)(F)F)Nc1cccc(C(F)(F)F)c1	2.57 µM
COc1ccccc1C(=O)NC(=Nc1nc2ccccc2o1)NC(=O)c1ccccc1OC	9.43 µM (inactive)
C=C(C)C(=O)OC1(C(F)(F)F)Oc2cc(C)ccc2NC1=O (configuration not stated)	5.82 µM (inactive)
CCOc1cc(NC(=O)CCl)c(OCC)cc1NC(=O)CCl	> 10 µM (inactive)
O=Cc1s/c(=N\S(=O)(=O)c2ccccc2)n(CCCCl)c1Cl	5.89 µM (inactive)
CCCc1cc(-c2nc(N)ncc2-c2ccc3c(c2)OCCCO3)c(O)cc1OC	8.02 µM (inactive)
O=C(CCl)N(Cc1cccc([N+](=O)[O-])c1)c1cccc(Cl)c1	9.39 µM (inactive)
C[C@H](NC(=O)c1nc[nH]c1C(=O)N[C@@H](Cc1ccccc1)C(=O)OC(C)(C)C)C(=O)OC(C)(C)C	5.25 µM (inactive)
Cc1cc(C)n(-c2nc(Nc3ccccc3C(F)(F)F)nc(-n3nc(C)cc3C)n2)n1	3.93 µM (inactive)
Cc1ccccc1CS(=O)(=O)c1nnc([C@H](CC(C)C)NC(=O)OC(C)(C)C)o1	4.63 µM
Nc1ccc2oc(-c3cc(Br)ccc3Cl)nc2c1	0.71 µM
CCOC(=O)c1c2ccc(OCC(=O)N/N=C/c3ccc(C)cc3)cc2n2ccccc12	9.52 µM (inactive)
CCc1ccc2c(c1)C(c1ccc([N+](=O)[O-])cc1)=NNC(c1ccc(C)cc1)=N2	> 10 µM (inactive)
CC(C)(C)C(=O)Nc1ccc(-c2nc3ccccc3c(=O)o2)cc1	0.7 µM (inactive)
CCOC(=O)c1c(-n2c(C)cc(C=C3C(=O)NC(=S)NC3=O)c2C)sc2c1CCCC2	5.85 µM (inactive)
Cc1ccc(-c2nc(-c3ccccn3)no2)cc1	4.47 µM
COc1cc(/C=N/O)cc(Br)c1OCc1cccc(Cl)c1	6.16 µM (inactive)
COc1ccccc1NCC(O)COc1ccc(C(C)(C)C)cc1 (configuration not stated)	9.32 µM (inactive)
CCCCCCCCCCCCCCCC[n+]1cccc2ccccc21	0.41 µM
Cc1ccc(NN2C(=O)C=C(c3ccc(Cl)cc3)C2=O)cc1	2.09 µM
CC1(C)CC(C(CCN(Cc2ccccc2)C(=O)c2ccco2)c2ccc(F)cc2)CCO1 (configuration not stated)	9.7 µM (inactive)
CC(C)(C)c1ccc(-c2noc(CCC(N)=O)n2)cc1	< 0.16 µM

SMILES	IC50
COc1ccc(OCc2n(CC(=O)OC3CC(C)CCC3C(C)C)c3ccccc3[n+]2C)cc1 (configuration not stated)	> 10 µM (inactive)
Cc1ccc2nc(NC(=O)C3CCN(S(=O)(=O)c4cc([N+](=O)[O-])ccc4Cl)CC3)sc2c1	3.51 µM
CC(C)=CCCC1(C)C=Cc2c(c(C)cc3c2[nH]c2cc(O)ccc23)O1 (configuration not stated)	6.04 µM (inactive)
Cc1[nH]c2ccccc2c1/C=N/NC(=O)C1CC1(c1ccccc1)c1ccccc1 (configuration not stated)	> 10 µM (inactive)
OCCCNc1nccc(-c2cc(Nc3cccc(Cl)c3)ncn2)n1	0.3 µM
O=C(Nc1ccc([N+](=O)[O-])cc1)Nc1nc(-c2ccc(Cl)s2)cs1	2.28 µM
Cn1c(=O)[nH]c(=O)c2[nH]c(N(Cc3ccccc3)Cc3ccccc3)nc21	6.18 µM (inactive)
CCCCc1nc2ccccc2c(=O)n1NC(=O)c1c(O)c2ccccc2n(C)c1=O	> 10 µM (inactive)
CCC(=O)N1N=C(c2c(-c3ccccc3)c3cc(Cl)ccc3[nH]c2=O)CC1c1ccco1 (configuration not stated)	8.96 µM (inactive)
CCOc1ccc(-n2c(SCC(=O)Nc3ccc(Br)cc3)nc3n[nH]c(C)c3c2=N)cc1	8.02 µM (inactive)
CCSc1nc(-c2ccccc2)nc(C(Cl)Cl)n1	6.32 µM (inactive)
O=C1C(Nc2ccccc2)=C/C(=N/S(=O)(=O)c2cccs2)c2ccccc21	2.6 µM
CN(C)c1ccc(-c2nc3ccccn3c2/N=C/c2ccc(Br)cc2)cc1	7.04 µM
CC(=O)OCC1O[C@@H](O[C@@H]2C[C@H]3C(C)(C)[C@H](OC(C)=O)CC[C@]3(C)[C@H]3CC[C@]45C[C@]4(CC[C@H]5[C@@H](C)C[C@@H](O)[C@H](O)C(C)(C)O)[C@@]32C)[C@H](O)[C@@H](O)[C@@H]1O (some centres not stated)	5.96 µM (inactive)
O=C(Nc1ccc(Cl)c(C(F)(F)F)c1)NC1CC2CCCC(C1)N2Cc1ccccc1 (configuration not stated)	7.84 µM (inactive)
CC(=O)N(C1=C(Cl)C(=O)c2ccccc2C1=O)C1CCCCC1	8.08 µM (inactive)
O=[N+]([O-])c1ccc(S(=O)(=O)CC(CN2CCCCC2)N2CCCCC2)cc1 (configuration not stated)	5.93 µM (inactive)
OC(COCC(F)(F)C(F)(F)C(F)(F)C(F)F)Cn1c2ccccc2c2ccccc21 (configuration not stated)	2.39 µM
Cn1cnc([N+](=O)[O-])c1S(=O)(=O)c1cccc(Cl)c1	8.11 µM (inactive)
CCSc1nc2ccccc2n1C(=O)/C=C\c1ccc(OC)c(OC)c1	4.06 µM
CCC(NC(=O)Nc1nnc(C(F)(F)F)s1)(C(F)(F)F)C(F)(F)F	2.56 µM (inactive)
O=C(c1ccco1)N1CCN(c2c(-c3ccccc3)c3cc(Cl)ccc3[nH]c2=O)CC1	5.65 µM (inactive)
COC(=O)c1c(NC(=O)Nc2ccc(Cl)cc2)sc(C)c1C	9.33 µM (inactive)
CC(=O)OCCCNc1cc(Sc2ccc(Cl)cc2)c2nonc2c1[N+](=O)[O-]	> 10 µM (inactive)
Cc1cc(Cl)ccc1OCc1n[nH]c(=S)n1C1CCCCC1	> 10 µM (inactive)

SMILES	IC50
CCOC(=O)C1=C(c2ccccc2)O/C(=C(/C#N)C(F)(F)F)S1	6.28 µM (inactive)
CCCCCCSc1nsc(NC(=O)CCC)n1	9.9 µM (inactive)
O=C(O)c1cccc(COc2ccccc2Cl)c1	6.05 µM (inactive)
O=C(COc1ccc(Cl)cc1Cl)NCCC1=CCCCC1	7.77 µM (inactive)
O=C1C=CC(O)(c2cc(=O)c3c(O)cc(O)cc3o2)C=C1	2.58 µM
CCOc1cc(/C=N/NC(=O)COc2cccc(C)c2)ccc1OC(=O)c1cccs1	> 10 µM (inactive)
CC(C)=CCc1c(O)cc2oc3c(CC=C(C)C)c(O)c(O)c(CC=C(C)C)c3c(=O)c2c1O	9.67 µM (inactive)
COCCCn1c(N)c(C(=O)NCCC(C)C)c2nc3ccccc3nc21	9.46 µM (inactive)
CC(C)(C)c1ccc(C(=O)NC(=S)NNC(=O)c2cccs2)cc1	6.3 µM (inactive)
CN1CCc2c(sc(NC(=O)c3cc4cc([N+](=O)[O-])ccc4s3)c2C(N)=O)C1	4.6 µM
CC(C)C[C@H](NC(=O)OC(C)(C)C)c1nnc(SCC(=O)Nc2ccc(Br)cc2)o1	5.57 µM (inactive)
COc1ccc(C(=O)Nc2nnc(-c3ccco3)s2)cc1	8.58 µM (inactive)
COC(=O)C[C@]1(C(=O)OC)CN(C#N)N(c2ccc(Cl)cc2)C12c1ccccc1-c1ccccc12	2.16 µM
Cc1nn(CCC#N)c2nc(-c3ccccc3)cc(C(F)(F)F)c12	4 µM (inactive)
CCOc1cccc(CNc2ccc(O)cc2)c1OCc1ccc(Cl)cc1Cl	4.58 µM
O=C1CC(c2cccc(Cl)c2)CC(O)=C1C=Nc1cccc(Cl)c1 (configuration not stated)	9.72 µM (inactive)
O=S(=O)(N/N=C/c1ccc(Cl)cc1)c1ccc(Cc2ncc(C(F)(F)F)cc2Cl)s1	6.37 µM (inactive)
O=C(NNc1ccccc1Br)C(O)(c1cccc(C(F)(F)F)c1)c1cccc(C(F)(F)F)c1	2.14 µM
CC(C)Cn1c(=O)c2ccccc2n2c(SCC(=O)N3c4ccccc4CC3C)nnc12 (configuration not stated)	> 10 µM (inactive)
O=C(Nc1ccccc1)Nc1cc(OCC(F)(F)F)cc(OCC(F)(F)F)c1	2.34 µM
Cc1cccc(OCc2nnc(SCc3nc4cc(C(F)(F)F)ccc4c(=O)[nH]3)o2)c1	8.17 µM (inactive)
CC(C)C(=O)N1CCC(CN=Cc2c(O)n(C3CCCCC3)c(=O)n(C3CCCCC3)c2=O)CC1	9.9 µM (inactive)
Nc1ccc(SC(F)(F)F)cc1C(=O)c1ccccc1	4.97 µM
Cc1cc(C)cc(OC2CCCCC2NS(=O)(=O)c2ccccc2)c1 (configuration not stated)	> 10 µM (inactive)
CCOC(=O)Cc1csc(NC(=O)NC2(C(F)(F)F)Oc3cc(Cl)c(Cl)cc3O2)n1	4.04 µM

SMILES	IC50
Cc1cc(Cl)n2c(nc3cc(F)c(F)cc32)c1C#N	> 10 µM (inactive)
CCOc1ccc(-c2n[nH]c(C)c2Oc2ccc(OC)cc2)c(O)c1	> 10 µM (inactive)
COc1ccc(NC(=O)/C(Cl)=C(/Cl)S(=O)Cc2ccccc2Cl)cn1 (configuration not stated)	0.3 µM
CC(C)(C)C1CCC(C(=O)OCC(=O)c2ccc[nH]2)CC1 (configuration not stated)	6.04 µM (inactive)
Clc1nssc1=Nc1ccc(Br)cc1	6.25 µM (inactive)
O=C1C(Cl)=C(Nc2ccccc2)C(=O)c2ccccc21	> 10 µM (inactive)
CCCCCCCCCCCCCCCC[n+]1cccc(C(=O)N(CC)CC)c1	5.06 µM (inactive)
Cc1ccc(-n2c(=O)[nH]c3c(C(N)=O)nc(-c4ccc(C)o4)nc32)cc1	> 10 µM (inactive)
COc1ccc(/C=N\NC(=O)COc2ccc(C(C)(C)C)cc2)cc1Cn1nc(C)cc1C	2.99 µM
CCOC(=O)c1cnc(-n2nc(C)cc2C)nc1Nc1ccc(O)cc1	1.51 µM
Cc1cc(-c2[nH]nc3c2C(c2ccc(Cl)cc2)C(C#N)=C(N)O3)c(C)s1 (configuration not stated)	7.25 µM (inactive)
COc1ccc(C(=O)c2c(C(F)(F)F)oc3c2C(=O)c2ccccc2C3=O)cc1	9.46 µM (inactive)
Cc1ccccc1N1CCN(C(=O)c2ccc(Oc3ccc(C(F)(F)F)cn3)cc2)CC1	3.48 µM (inactive)
CCOC(=O)c1c(NC(=O)Cc2cccs2)sc(C(=O)NC2CCCCC2)c1C	2.99 µM
COc1ccc(OCc2cccc(C(=O)Nn3cc([N+](=O)[O-])cn3)c2)cc1	0.85 µM
O=C(c1nnsc1S(=O)(=O)c1ccc(Cl)cc1)N1CCOCC1	9.43 µM (inactive)
CN1/C(=C/C(=O)c2nc(S(C)(=O)=O)ncc2Cl)C(C)(C)c2ccccc21	< 0.16 µM
CC(C)(C)c1ccc(C(O)CCCN2CCC(C(O)(c3ccccc3)c3ccccc3)CC2)cc1 (configuration not stated)	4.12 µM (inactive)
O=C(Nc1cccc(F)c1)N(Cc1ccc(Cl)cc1)CC(O)C(F)(F)F (configuration not stated)	3.58 µM
CCSc1nc2ccccc2n1C(=O)/C=C/c1ccc(OC)c(OC)c1	4.97 µM
COc1ccc(C(=O)/C=C/C(=O)N(CC(=O)NC2CCCCC2)Cc2cccs2)c(O)c1	9.94 µM (inactive)
Cn1c(=O)c([N+](=O)[O-])c(Cl)c2ccccc21	3.34 µM

From PubChem BioAssay AID504322 (Emory University Molecular Libraries Screening Center, 2011)
